PubChem BioAssay (NCI)
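How tested: cells in 96-well plates exposed to compound for 48 hours at five concentrations. Here, GI50 denotes the concentration required for 50% inhibition of growth. TGI denotes the concentration required for complete inhibition of growth.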

Tests used:
Assay in all cases: NCI tumour cell line growth inhibition, 48 h
CAKI-1 renal = tested on: CAKI-1 renal
SK-OV-3 ovarian = tested on: SK-OV-3 ovarian
HCT-116 colon = tested on: HCT-116 colon
SN12C renal = tested on: SN12C renal
NCI-H23 lung = tested on: NCI-H23 lung
NCI-H522 lung = tested on: NCI-H522 lung
U251 CNS = tested on: U251 CNS
SK-MEL-28 melanoma = tested on: SK-MEL-28 melanoma
OVCAR-4 ovarian = tested on: OVCAR-4 ovarian
HS 578T breast = tested on: HS 578T breast

Row | Structure (SMILES) | TGI (CAKI-1 renal) | TGI (SK-OV-3 ovarian) | TGI (HCT-116 colon) | TGI (SN12C renal) | TGI (NCI-H23 lung) | TGI (NCI-H522 lung) | TGI (U251 CNS) | TGI (SK-MEL-28 melanoma) | TGI (OVCAR-4 ovarian) | GI50 (CAKI-1 renal) | GI50 (SK-OV-3 ovarian) | GI50 (HCT-116 colon) | GI50 (SN12C renal) | GI50 (HS 578T breast) | TGI (HS 578T breast) | GI50 (NCI-H23 lung) | GI50 (NCI-H522 lung) | GI50 (U251 CNS) | GI50 (SK-MEL-28 melanoma) | GI50 (OVCAR-4 ovarian)
1 | CN(CCCN1C(=O)c2cccc3cc([N+](=O)[O-])cc(c23)C1=O)CCN(C)CCCN1C(=O)c2cccc3cc([N+](=O)[O-])cc(c23)C1=O | > 39.3 µM | > 39.3 µM | > 39.3 µM | > 39.3 µM | > 39.3 µM | > 39.3 µM | > 39.3 µM | > 39.3 µM | > 39.3 µM |  |  |  |  |  |  |  |  |  |  | 
2 | c1cc(C2CCCCC2)ccc1-c1cnc2nonc2n1 | 3.18 µM | 5.98 µM | 1.93 µM | 3.21 µM | 4.02 µM | 2.56 µM | 2.44 µM | 2.99 µM | 2.28 µM | 1.08 µM | 2.21 µM | 0.468 µM | 1.1 µM | 1.02 µM | > 58.3 µM | 1.37 µM | 0.548 µM | 1.18 µM | 1.36 µM | 0.856 µM
3 | C=C(C)C1CCC2=CC(CC3(C)OC3C3=CC(C(=O)OC)=C(C1)O3)OC2=O (centres undefined) | > 100 µM |  | > 100 µM | > 100 µM | > 100 µM | > 100 µM | > 100 µM | > 100 µM |  |  |  |  |  |  |  |  |  |  |  | 
4 | CCOC(=O)C(=O)Nc1c(C)cccc1C(C)(C)C | > 100 µM | > 100 µM | > 100 µM | > 100 µM | > 100 µM | > 100 µM | > 100 µM | > 100 µM | > 100 µM |  |  |  |  |  |  |  |  |  |  | 
5 | COc1cccc2c(SCC(=O)Nc3ccccc3-c3ccccc3NC(=O)CSc3c4ccccc4nc4c(OC)cccc34)c3ccccc3nc12 |  |  | > 100 µM | > 100 µM | > 100 µM |  | > 100 µM | > 100 µM | > 100 µM |  |  |  |  |  |  |  |  |  |  | 
6 | O=C(COC(=O)c1cccc2c(=O)c3ccccc3[nH]c12)Nc1ccc(Cl)cc1 | > 100 µM | > 100 µM | > 100 µM | > 100 µM | 64.2 µM | > 100 µM | > 100 µM | > 100 µM | > 100 µM |  |  |  |  |  |  |  |  |  |  | 
7 | Cc1cc(-c2nc3n(c2/C=N/N=C(N)N)CCS3)c(C)s1 | 23.8 µM | 36.9 µM | 28.7 µM | 28.9 µM | 28.2 µM |  | 32.1 µM | 29.4 µM | > 100 µM | 8.02 µM | 19.8 µM | 15.4 µM | 14.9 µM |  |  | 15 µM |  | 15.6 µM | 15.1 µM | 36.2 µM
8 | C=CC(=O)Nc1ccccc1CC(c1c[nH]c2ccccc12)c1c[nH]c2ccccc12 | 37.7 µM | 45.7 µM |  | 30.6 µM | 38.2 µM | 48.2 µM |  | 32.1 µM |  |  |  |  |  |  |  |  |  |  |  | 
9 | O=C(O)/C(Cl)=C(Cl)/C=N/NC(=O)c1cc2ccccc2cc1O | > 100 µM | > 100 µM | > 100 µM | > 100 µM | 41.2 µM | 77 µM | > 100 µM | > 100 µM | 72 µM |  |  |  |  |  |  |  |  |  |  | 
10 | CCCCCN(CCCCC)C(=O)[C@H](CCC(=O)O)NC(=O)c1cc2ccccc2[nH]1 | > 100 µM | > 100 µM | 92.5 µM | > 100 µM | 85.8 µM | 67.7 µM | > 100 µM | 96.4 µM | > 100 µM |  |  |  |  |  |  |  |  |  |  | 
11 | CN(C)C(=S)/N=c1\ssc(=S)n1Cc1ccco1 | > 100 µM | > 100 µM | > 72 µM | > 100 µM | 45.6 µM | 2.07 µM | > 47.4 µM | > 100 µM | 66.8 µM |  |  |  |  |  |  |  |  |  |  | 
12 | CC1(C2COC(=O)C2)SCCCS1 (centres undefined) | > 100 µM | > 100 µM | > 100 µM | > 100 µM | > 100 µM | 10.9 µM |  | > 100 µM | > 100 µM |  |  |  |  |  |  |  |  |  |  | 
13 | C(=C\c1ccncc1)/c1ccncc1 | > 100 µM | > 100 µM | > 100 µM | > 100 µM | > 100 µM |  | > 100 µM | > 100 µM | > 100 µM | > 100 µM | > 100 µM | > 100 µM | > 100 µM |  |  | > 100 µM |  | > 100 µM | > 100 µM | > 100 µM
14 | Cc1ccc(C2[C@H]3C(=O)N(c4ccc(Cc5ccc(N6C(=O)[C@@H]7ON(c8ccccc8)C(c8ccc(C)cc8)[C@@H]7C6=O)cc5)cc4)C(=O)[C@H]3ON2c2ccccc2)cc1 (some centres undefined) | > 100 µM | > 100 µM |  | > 100 µM | > 100 µM |  | > 100 µM | > 100 µM | > 100 µM |  |  |  |  |  |  |  |  |  |  | 
15 | CN(C)CCNC(=O)c1cccc2c1Oc1cccc([N+](=O)[O-])c1O2 | 33.7 µM | 37.4 µM | 30.6 µM | > 100 µM | 72.8 µM | 32.9 µM | 42.8 µM | 38.9 µM |  |  |  |  |  |  | 40.2 µM |  |  |  |  | 
16 | C[C@]12Cc3conc3C(O)=C1CC[C@@H]1C2CC[C@@]2(C)C1CC[C@]2(C)O (some centres undefined) |  | 57.4 µM | 39.3 µM | > 100 µM | 49.9 µM |  | 48.9 µM | 83 µM | 44.4 µM |  |  |  |  |  |  |  |  |  |  | 
17 | CCCS(=O)c1nc(COC(=O)NC)c(COC(=O)NC)n1C (centres undefined) | > 100 µM | > 100 µM | > 100 µM | > 100 µM | > 100 µM | > 100 µM | > 100 µM | > 100 µM | > 100 µM |  |  |  |  |  |  |  |  |  |  | 
18 | COC(=O)c1ccc(C(=O)OC)c2nc3cc(Cl)ccc3nc12 | > 100 µM | > 100 µM | > 100 µM | > 100 µM | > 100 µM | > 100 µM | > 100 µM | > 100 µM | > 100 µM |  |  |  |  |  |  |  |  |  |  | 
19 | Nn1c(-c2cccc(Cl)c2)nc2ccccc2c1=O | > 100 µM | > 100 µM | > 100 µM | > 100 µM | > 100 µM | > 100 µM | > 100 µM | > 100 µM | > 100 µM |  |  |  |  |  |  |  |  |  |  | 
20 | N#CC(C(=N/O)/C(=N\O)C(C#N)c1ccccc1)c1ccccc1 (centres undefined) |  | > 100 µM | > 100 µM | > 100 µM | > 100 µM | > 100 µM | > 100 µM | > 100 µM | > 100 µM |  |  |  |  |  |  |  |  |  |  | 
21 | O=C1CC(Cc2n[nH]c3c2CCCC3)CC(=O)N1 | > 100 µM | > 100 µM | > 100 µM | > 100 µM | > 100 µM |  | > 100 µM | > 100 µM | > 100 µM |  |  |  |  |  |  |  |  |  |  | 
